Test results reported in PubChem BioAssay AID1745844 (Carcinogenic Potency Database (CPDB), 2022).
Where “and” joins values, the source holds several entries; their conditions need not be identical. Equal values may be shown once. Calls of active or inactive are those of the source. How the calls were made is not given here.

Test system: rodent lifetime carcinogenesis bioassay, tumor incidence TD50
Assay: carcinogenic potency in animals, long-term in vivo studies, CPDB compilation (AID 1745844)
[1] = mouse, strain B6C3F1, females, in feed, site: liver, lesion: hepatocellular carcinoma, dosed 96 weeks, study length 104 weeks
[2] = mouse, strain B6C3F1, males, in feed, site: liver, lesion: hepatocellular carcinoma, dosed 96 weeks, study length 104 weeks
[3] = mouse, strain B6C3F1, females, in feed, site: any site (literature study), lesion: several types, types named in the paper, dosed 103 weeks, study length 103 weeks
[4] = mouse, strain B6C3F1, males, in feed, site: any site (literature study), lesion: several types, types named in the paper, dosed 103 weeks, study length 103 weeks
[5] = mouse, strain B6C3F1, males, in feed, site: liver, lesion: hepatocellular adenoma + hepatocellular carcinoma + neoplastic nodule, dosed 103 weeks, study length 103 weeks
[6] = mouse, strain B6C3F1, males, in feed, site: lung, lesion: alveolar/bronchiolar adenoma + alveolar/bronchiolar carcinoma, dosed 103 weeks, study length 103 weeks
[7] = rat, strain Fischer 344, females, in feed, site: any site (literature study), lesion: several types, types named in the paper, dosed 103 weeks, study length 104 weeks

O
TD50 (mouse, strain B6C3F1, females, in drinking water, site: any site (literature study), lesion: several types, types named in the paper, dosed 104 weeks, study length 105 weeks): 806 mg/kg/day (inactive) | TD50 (mouse, strain B6C3F1, females, in drinking water, site: liver, lesion: hepatocellular adenoma + hepatoblastoma + hepatocellular carcinoma, dosed 104 weeks, study length 105 weeks): 4410 mg/kg/day | TD50 (mouse, strain B6C3F1, females, in drinking water, site: lung, lesion: alveolar/bronchiolar adenoma + alveolar/bronchiolar carcinoma, dosed 104 weeks, study length 105 weeks): 13400 mg/kg/day | carcinogen call (mouse, strain B6C3F1, females, in feed, site: all sites, lesion: lymphoma and leukemia, combined, dosed 96 weeks, study length 104 weeks): negative (inactive) | carcinogen call (mouse, strain B6C3F1, females, in feed, site: liver, lesion: hemangioma, dosed 96 weeks, study length 104 weeks): negative (inactive) | TD50 (mouse, strain B6C3F1, females, in feed, site: liver, lesion: hemangiosarcoma, dosed 96 weeks, study length 104 weeks): 57500 mg/kg/day (inactive) | carcinogen call [1]: negative (inactive) | TD50 (mouse, strain B6C3F1, females, in feed, site: liver, lesion: hyperplastic nodule, dosed 96 weeks, study length 104 weeks): 60500 mg/kg/day (inactive) | TD50 (mouse, strain B6C3F1, females, in feed, site: lung, lesion: adenocarcinoma, dosed 96 weeks, study length 104 weeks): 260000 mg/kg/day (inactive) | TD50 (mouse, strain B6C3F1, females, in feed, site: lung, lesion: adenoma, dosed 96 weeks, study length 104 weeks): 100000 mg/kg/day (inactive) | TD50 (mouse, strain B6C3F1, males, in drinking water, site: all sites, lesion: hemangioma, dosed 103 weeks, study length 103 weeks): 3470 mg/kg/day (inactive) | TD50 (mouse, strain B6C3F1, males, in feed, site: all sites, lesion: lymphoma and leukemia, combined, dosed 96 weeks, study length 104 weeks): 10700 mg/kg/day (inactive) | TD50 (mouse, strain B6C3F1, males, in feed, site: liver, lesion: hemangioma, dosed 96 weeks, study length 104 weeks): 24400 mg/kg/day (inactive) | TD50 (mouse, strain B6C3F1, males, in feed, site: liver, lesion: hemangiosarcoma, dosed 96 weeks, study length 104 weeks): 46700 mg/kg/day (inactive) | carcinogen call [2]: negative (inactive) | carcinogen call (mouse, strain B6C3F1, males, in feed, site: liver, lesion: hyperplastic nodule, dosed 96 weeks, study length 104 weeks): negative (inactive) | carcinogen call (mouse, strain B6C3F1, males, in feed, site: lung, lesion: adenocarcinoma, dosed 96 weeks, study length 104 weeks): negative (inactive) | TD50 (mouse, strain B6C3F1, males, in feed, site: lung, lesion: adenoma, dosed 96 weeks, study length 104 weeks): 87600 mg/kg/day (inactive) | carcinogen call (rat, strain Fischer 344, females, in drinking water, site: any site (literature study), lesion: several types, types named in the paper, dosed 105 weeks, study length 105 weeks): negative (inactive) | carcinogen call (rat, strain Fischer 344, males, in drinking water, site: any site (literature study), lesion: several types, types named in the paper, dosed 104 weeks, study length 104 weeks): negative (inactive)

CNc1ncnc2c1ncn2[C@@H]1O[C@H](CO)[C@@H](O)[C@H]1O
TD50 (mouse, strain Swiss CD-1, females, in drinking water, site: liver, lesion: several types, types named in the paper, dosed 34 weeks, study length 115 weeks): 364 mg/kg/day (inactive) | carcinogen call (mouse, strain Swiss CD-1, females, in drinking water, site: lung, lesion: one or several types, types not named, dosed 34 weeks, study length 115 weeks): negative (inactive) | TD50 (mouse, strain Swiss CD-1, males, in drinking water, site: liver, lesion: several types, types named in the paper, dosed 34 weeks, study length 118 weeks): 108 mg/kg/day (inactive) | TD50 (mouse, strain Swiss CD-1, males, in drinking water, site: lung, lesion: one or several types, types not named, dosed 34 weeks, study length 118 weeks): 55.6 mg/kg/day (inactive)

CC(=O)[O][Sn]([c]1ccccc1)([c]1ccccc1)[c]1ccccc1
TD50 (mouse, strain B6AKF1, females, oral dosing, site: any site (literature study), lesion: several types, types named in the paper, dosed 76 weeks, study length 76 weeks): 437 mg/kg/day (inactive) | carcinogen call (mouse, strain B6AKF1, females, oral dosing, site: liver, lesion: hepatoma, dosed 76 weeks, study length 76 weeks): negative (inactive) | TD50 (mouse, strain B6AKF1, females, oral dosing, site: lung, lesion: adenoma, dosed 76 weeks, study length 76 weeks): 964 mg/kg/day (inactive) | TD50 (mouse, strain B6AKF1, males, oral dosing, site: any site (literature study), lesion: several types, types named in the paper, dosed 76 weeks, study length 76 weeks): 307 mg/kg/day (inactive) | TD50 (mouse, strain B6AKF1, males, oral dosing, site: liver, lesion: hepatoma, dosed 76 weeks, study length 76 weeks): 241 mg/kg/day (inactive) | carcinogen call (mouse, strain B6AKF1, males, oral dosing, site: lung, lesion: adenoma, dosed 76 weeks, study length 76 weeks): negative (inactive) | TD50 (mouse, strain B6C3F1, females, oral dosing, site: any site (literature study), lesion: several types, types named in the paper, dosed 76 weeks, study length 76 weeks): 284 mg/kg/day (inactive) | TD50 (mouse, strain B6C3F1, females, oral dosing, site: liver, lesion: hepatoma, dosed 76 weeks, study length 76 weeks): 909 mg/kg/day (inactive) | TD50 (mouse, strain B6C3F1, females, oral dosing, site: lung, lesion: adenoma, dosed 76 weeks, study length 76 weeks): 440 mg/kg/day (inactive) | TD50 (mouse, strain B6C3F1, males, oral dosing, site: any site (literature study), lesion: several types, types named in the paper, dosed 76 weeks, study length 76 weeks): 117 mg/kg/day (inactive) | TD50 (mouse, strain B6C3F1, males, oral dosing, site: liver, lesion: hepatoma, dosed 76 weeks, study length 76 weeks): 407 mg/kg/day (inactive) | TD50 (mouse, strain B6C3F1, males, oral dosing, site: lung, lesion: adenoma, dosed 76 weeks, study length 76 weeks): 262 mg/kg/day (inactive)

Cc1ccc(C)c(N)c1
TD50 (mouse, strain CD-1 HaM/ICR, females, in feed, site: any site (literature study), lesion: several types, types named in the paper, dosed 68 weeks, study length 94 weeks): 475 mg/kg/day | TD50 (mouse, strain CD-1 HaM/ICR, females, in feed, site: liver, lesion: hepatoma, dosed 68 weeks, study length 94 weeks): 552 mg/kg/day | TD50 (mouse, strain CD-1 HaM/ICR, females, in feed, site: liver, lesion: several types, types named in the paper, dosed 68 weeks, study length 94 weeks): 552 mg/kg/day | TD50 (mouse, strain CD-1 HaM/ICR, females, in feed, site: lung, lesion: several types, types named in the paper, dosed 68 weeks, study length 94 weeks): 1290 mg/kg/day (inactive) | TD50 (mouse, strain CD-1 HaM/ICR, males, in feed, site: all sites, lesion: all vascular tumors, dosed 68 weeks, study length 94 weeks): 723 mg/kg/day | TD50 (mouse, strain CD-1 HaM/ICR, males, in feed, site: any site (literature study), lesion: several types, types named in the paper, dosed 68 weeks, study length 94 weeks): 321 mg/kg/day | TD50 (mouse, strain CD-1 HaM/ICR, males, in feed, site: liver, lesion: several types, types named in the paper, dosed 68 weeks, study length 94 weeks): 805 mg/kg/day | TD50 (mouse, strain CD-1 HaM/ICR, males, in feed, site: lung, lesion: several types, types named in the paper, dosed 68 weeks, study length 94 weeks): 765 mg/kg/day (inactive) | TD50 (rat, strain Charles River CD (Sprague-Dawley), males, in feed, site: any site (literature study), lesion: several types, types named in the paper, dosed 77 weeks, study length 103 weeks): 67.2 mg/kg/day | TD50 (rat, strain Charles River CD (Sprague-Dawley), males, in feed, site: liver, lesion: several types, types named in the paper, dosed 77 weeks, study length 103 weeks): 3260 mg/kg/day (inactive) | TD50 (rat, strain Charles River CD (Sprague-Dawley), males, in feed, site: subcutaneous tissue, lesion: several types, types named in the paper, dosed 77 weeks, study length 103 weeks): 152 mg/kg/day

COc1ccc([N+](=O)[O-])cc1N=Nc1c(O)c(C(=O)Nc2cccc([N+](=O)[O-])c2)cc2ccccc12
TD50 [3]: 29700 mg/kg/day (inactive) | TD50 (mouse, strain B6C3F1, females, in feed, site: lung, lesion: alveolar/bronchiolar adenoma + alveolar/bronchiolar carcinoma, dosed 103 weeks, study length 103 weeks): 45200 mg/kg/day | TD50 [4]: 20200 mg/kg/day (inactive) | TD50 [5]: 15100 mg/kg/day | TD50 [6]: 112000 mg/kg/day | carcinogen call [7]: negative (inactive) | TD50 (rat, strain Fischer 344, males, in feed, site: kidney, lesion: tubule adenoma + tubule carcinoma, dosed 103 weeks, study length 104 weeks): 19800 mg/kg/day and 16300 mg/kg/day

CCCCC/C=C\C/C=C\CCCCCCCC(=O)O[C@H](COC(=O)CCCCCCCCCCCCCCC)COP(=O)([O-])OCC[N+](C)(C)C
carcinogen call (rat, strain Wistar, females, in feed, site: liver, lesion: nodular hyperplasia, dosed 104 weeks, study length 104 weeks): negative (inactive) | TD50 (rat, strain Wistar, males, in feed, site: liver, lesion: cholangioma, dosed 104 weeks, study length 104 weeks): 42200 mg/kg/day (inactive)

c1ccc2c(c1)[nH]c1ccccc12
TD50 (mouse, strain B6C3F1, females, in feed, site: forestomach, lesion: papilloma, dosed 96 weeks, study length 104 weeks): 1290 mg/kg/day | TD50 (mouse, strain B6C3F1, females, in feed, site: forestomach, lesion: several types, types named in the paper, dosed 96 weeks, study length 104 weeks): 1960 mg/kg/day | TD50 [1]: 102 mg/kg/day | TD50 (mouse, strain B6C3F1, males, in feed, site: forestomach, lesion: papilloma, dosed 96 weeks, study length 104 weeks): 7030 mg/kg/day | TD50 (mouse, strain B6C3F1, males, in feed, site: forestomach, lesion: several types, types named in the paper, dosed 96 weeks, study length 104 weeks): 2790 mg/kg/day | TD50 (mouse, strain B6C3F1, males, in feed, site: forestomach, lesion: squamous-cell carcinoma, dosed 96 weeks, study length 104 weeks): 4940 mg/kg/day | TD50 [2]: 424 mg/kg/day

CCCCN(N=O)C(=N)N[N+](=O)[O-]
carcinogen call (rat, strain Wistar, males, in drinking water, site: stomach, glandular, lesion: one or several types, types not named, dosed 52 weeks, study length 78 weeks): negative (inactive)

Cc1c2ccccc2c(C)c2c1ccc1ccccc12
TD50 (mouse, strain albino, females, in feed, site: forestomach, lesion: papilloma, dosed 60 weeks, study length 60 weeks): 0.287 mg/kg/day | TD50 (mouse, strain albino, females, in feed, site: mesenteric intestine, lesion: angio-endothelioma, malignant, dosed 60 weeks, study length 60 weeks): 0.084 mg/kg/day

NC(Cc1c[nH]c2ccccc12)C(=O)O (configuration not stated)
carcinogen call (rat, strain Fischer, males, in feed, site: liver, lesion: one or several types, types not named, dosed 98 weeks, study length 98 weeks): negative (inactive) | carcinogen call (rat, strain Fischer, males, in feed, site: urinary bladder, lesion: one or several types, types not named, dosed 98 weeks, study length 98 weeks): negative (inactive)

CN(C)C(=O)Nc1cccc(C(F)(F)F)c1
TD50 [3]: 369 mg/kg/day (inactive) | TD50 (mouse, strain B6C3F1, females, in feed, site: liver, lesion: hepatocellular adenoma + hepatocellular carcinoma + neoplastic nodule, dosed 103 weeks, study length 103 weeks): 1230 mg/kg/day | TD50 [4]: 265 mg/kg/day | TD50 [5]: 229 mg/kg/day | TD50 (mouse, strain B6C3F1, males, in feed, site: liver, lesion: hepatocellular adenoma + hepatocellular carcinoma, dosed 103 weeks, study length 103 weeks): 229 mg/kg/day | TD50 [6]: 1420 mg/kg/day | carcinogen call [7]: negative (inactive) | TD50 (rat, strain Fischer 344, males, in feed, site: liver, lesion: hepatocellular adenoma + hepatocellular carcinoma + neoplastic nodule, dosed 103 weeks, study length 104 weeks): 55.4 mg/kg/day | TD50 (rat, strain Fischer 344, males, in feed, site: liver, lesion: neoplastic nodule, dosed 103 weeks, study length 104 weeks): 55.4 mg/kg/day (inactive)
